Source: US20130034497A1, “IODINE-LABELED HOMOGLUTAMIC ACID AND GLUTAMIC ACID DERIVATIVES” (PIRAMAL IMAGING SA, priority 2009, published 2013)
Each block holds one compound with its values, some of them ahead of it.

How the values were obtained:
NCl-H460 cells [1] = assay: tumor cell uptake/binding experiment with I125-labeled derivative; assay type: cell-based, human
Method: FIG. 6 The time dependence of uptake of (2S,4S)-2-Amino-4-(4-[I-125]-iodo-benzyl)-pentanedioic acid was determined. H460 cells were incubated with 0.25 MBq (2S,4S)-2-Amino-4-(4-[I-125]-iodo-benzyl)-pentanedioic acid for up to 60 min and the cell-bound fraction was determined after 10, 20, 30 and 60 min).
In a next experiment, NCl-H460 cells were incubated with [I125]-labeled (2S,4S)-2-Amino-4-(3-[4-[I-125]-iodophenoxy]propylypentanedioic acid for up to 30 min and the cell-bound fraction was determined. Approximately 12% of applied activity was bound to the cells after 30 min incubation (FIG. 2).
FIG. 2: E xamination of biological activity of (2S,4S)-2-Amino-4-(3-[4-[I-125]-iodophenoxy]propylypentanedioic acid in a tumor cell uptake/binding experiment. (NCl-H460 cells, up to 30 min incubation with I125-labeled derivative).
Cell uptake & Retention of (2S,4S)-2-Amino-4-(4-[1-125]-iodo-benzyl)-pentanedioic acid—For determination of the biological activity of (2S,4S)-2-Amino-4-(4-[I-125]-iodo-benzyl)-pentanedioic acid, the I-125 labeled compound was used as tracer in a cell uptake experiment using H460 (human NSCLC) cells. Approximately 100.000 cells were incubated with 0.25 MBq (2S,4S)-2-Amino-4-(4-[I-125]-iodo-benzyl)-pentanedioic acid for up to 60 minutes in PBS-buffer containing 0.1% BSA and the cell-bound fraction was determined. […] Approximately 22,3% of applied dose was taken up by the cells during the 60 min incubation period (see FIG. 6).

NCl-H460 cells [2] = assay: cell competition experiment with I125-labeled derivative as tracer; assay type: cell-based, human
Method: To determine the specificity of (2S,4S)-2-Amino-4-(4-hydroxy-3-[1-125]-iodobenzyl)-pentanedioic acid, the compound was used as tracer in a cell competition experiment in H460 tumor cells against an excess of L-Glutamic acid (1 mM).
FIG. 3: Examination of biological activity of (2S,4S)-2-Amino-4-(3-[4-[I-125]-iodophenoxy]propylypentanedioic acid in a cell competition experiment. (NCl-H460 cells, 30 min incubation with I125-labeled derivative in PBS-buffer, concentration of “cold” derivative 1 mM).
FIG. 5: Determination of biological activity of (2S,4S)-2-Amino-4-(4-hydroxy-3-[I-125]-iodobenzyl)-pentanedioic acid in a cell competition experiment. (NCl-H460 cells, 10 min incubation with [I125]-labeled derivative in PBS-buffer, concentration of L-Glutamate 1 mM).

[3] = tested on: NCl-H460 (human NSCLC) tumor cells; assay: cell competition experiment with 3H-glutamic acid as tracer, NCl-H460 cells; assay type: cell-based
Method: FIG. 9 Examination of biological activity of (S)-2-Amino-5-(4-iodobenzyl)-hexanedioic acid in a cell-competition-experiment (H460 cells, 30 min incubation with 3H-glutamic acid in PBS-Puffer, concentration of competitor 1 mM and 0.1 mM).
The specificity of binding to NCl-H460 (human NSCLC) tumor cells was examined using 3H-Glutamic acid as tracer and (2S,4S)-2-Amino-4-(3-[4-iodophenoxy]propyl)-pentanedioic acid in concentrations ranging from 4 μM to 1 mM.
(§1) The specificity of binding was examined in a cell competition experiment using 3H-glutamic acid as tracer and (2S,4S)-2-Amino-4-(4-iodo-benzyl)-pentanedioic acid in excess (1 mM) to compete for transporter.
FIG. 1: Concentration dependent blocking of 3H-Glutamic acid uptake in H460 cells using different concentrations of (2S,4S)-2-Amino-4-(3-[4-iodophenoxy]propyl)-pentanedioic acid.
(§2) FIG. 4: Examination of biological activity of (2S,4S)-2-Amino-4-(4-iodo-benzyl)-pentanedioic acid in a cell competition experiment. (NCl-H460 cells, A549 cells, 10 min incubation with 1 μCi 3H-Glutamic acid in PBS-buffer, concentration of test compound 1 mM).
The ability of (S)-2-Amino-5-(4-iodobenzyl)-hexanedioic acid to compete with uptake of glutamic acid into tumor cells was examined. Therefore, tumor cells were co-incubated with 3H-labeled glutamic acid and (S)-2-Amino-5-(4-iodobenzyl)-hexanedioic acid. This compounds was used in large excess to the tracer 3H-glutamic acid. Two concentrations were examined (1mM an 0.1 mM).

[4] = tested on: NCl-H460 (human NSCLC) tumor bearing nude-mice; assay: SPECT imaging in tumor bearing nude-mice; assay type: in vivo, nude-mice (NMRI nu/nu); conditions: approx. 10 MBq; images acquired at 60 min p.i. for 35 min
Method: FIG. 8 SPECT imaging with (2S,4S)-2-Amino-4-(4-[I-125]odo-benzyl)-pentanedioic acid after injection into H460 tumor bearing mouse.
SPECT imaging. (2S,4S)-2-Amino-4-(4-[I-125]-iodo-benzyl)-pentanedioic acid was examined in NCl-H460 (human NSCLC) tumor bearing nude-mice (NMRI nu/nu). Approx. 10 MBq of (2S,4S)-2-Amino-4-(4-[I-125]-iodo-benzyl)pentanedioic acid was injected into the mouse. SPECT imaging was performed using a γ-camera (Nucline SPIRIT DH-V). Images were aquired at 60 min p.i. for 35 min with 60 sec/frame.

H460 tumor bearing mice = assay: Biodistribution in H460 tumor bearing mice; assay type: in vivo, NMRI (nu/nu) mice; conditions: for Bilanz/summary Recovery / Bilanz/summary urine: in % (unit assumed)
Method: Biodistribution in H460 tumor bearing mice. To test the pharmacokinetic properties of (2S,4S)-2-Amino-4-(4-[I-125]-iodo-benzyl)-pentanedioic acid, the iodinated compound was examined in H460 tumor bearing mice. NMRI (nu/nu) mice were inoculated with H460 tumor cells 8 to 10 days before the biodistribution studies. 185 kBq of activity of the tracer was injected into each mouse. n=3 mice were used at every time point. After injection of the I125-labeled compound, mice were sacrificed at the time points indicated. All organs were removed and radioactivity was determined using a γ-counter. […] Very rapid clearance of radioactivity takes place via the kidneys, with more than 90% of activity being excreted after 30 min p.i.

H460 tumor cells = assay: retention of activity in tumor cells (efflux); assay type: cell-based, human; conditions: H460 cells loaded 30 min; after 30 min in new PBS-buffer (efflux conditions)
Method: FIG. 7 Examination of retention of (2S,4S)-2-Amino-4-(4-[I-125]odo-benzyl)-pentanedioic acid in H460 tumor cells. H460 cells were loaded with 0.25 MBq (2S,4S)-2-Amino-4-(4-[I-125]-iodo-benzyl)-pentanedioic acid for 30 min in PBS/BSA. After washing, the cells were incubated with new buffer (without radioactivity) for additional 10, 20, 30 min. The release of radioactivity into the supernatant as well as the retention inside the cells was determined.
In a second experiment, the retention of activity in tumor cells was examined. H460 cells were loaded with 0.25 MBq (2S,4S)-2-Amino-4-(4-[I-125]-iodo-benzyl)-pentanedioic acid for 30 minutes in PBS/BSA-buffer. After this uptake, the buffer was removed and the cells were washed with PBS. The cells were then incubated with new PBS-buffer (without activity) for up to 30 min. The release of activity into the supernatant as well as the retention of activity inside the cells was examined. It was discovered, that more than 75% of activity were retained in the tumor cells after 30 min under these efflux conditions (see FIG. 7).

[5] = tested on: A549 (human NSCLC cell line); assay: cell competition experiment with 3H-glutamic acid as tracer, A549 cells; assay type: cell-based; conditions: test compound 1 mM, 10 min incubation with 1 μCi 3H-Glutamic acid in PBS-buffer
Method: as §1, §2

SMILES: N[C@@H](C[C@H](CCCOc1ccc([125I])cc1)C(=O)O)C(=O)O [(2S,4S)-2-Amino-4-(3-[4-[I-125]-iodophenoxy]propyl)-pentanedioic acid]
cell-bound fraction (NCl-H460 cells [1]; NCl-H460 cells, after 30 min incubation): Approximately 12 % of applied activity
binding of I125 tracer with cold derivative in excess (NCl-H460 cells [2]; NCl-H460 cells, 30 min incubation in PBS-buffer, cold derivative 1 mM): a large decrease in binding was observed

SMILES: N[C@@H](C[C@H](CCCOc1ccc(I)cc1)C(=O)O)C(=O)O [(2S,4S)-2-Amino-4-(3-[4-iodophenoxy]propyl)-pentanedioic acid]
uptake of 3H-glutamic acid (blocking) ([3]; NCl-H460 cells, test compound 4 μM to 1 mM): able to reduce the uptake of glutamic acid in NCl-H460 cells in a concentration dependent manner

Bilanz/summary carcass (H460 tumor bearing mice; 0.5 h): 3.4%
Bilanz/summary organs (H460 tumor bearing mice; 0.5 h): 10.2%
blood (H460 tumor bearing mice; 0.5 h): 0.28 % Dosis/g
gallbladder (H460 tumor bearing mice; 0.5 h): 8.09 % Dosis/g
intestine (H460 tumor bearing mice; 0.5 h): 1.26 % Dosis/g
kidney (H460 tumor bearing mice; 0.5 h): 2.14 % Dosis/g
liver (H460 tumor bearing mice; 0.5 h): 0.25 % Dosis/g
pancreas (H460 tumor bearing mice; 0.5 h): 0.62 % Dosis/g
thyroid (H460 tumor bearing mice; 0.5 h): 0.43 % Dosis/g
tumor (H460 tumor bearing mice; 0.5 h): 4.12 % Dosis/g
Bilanz/summary Recovery (H460 tumor bearing mice; 0.5 h): 112.7
Bilanz/summary urine (H460 tumor bearing mice; 0.5 h): 99.1
uptake in the tumor (H460 tumor bearing mice; 30 min p.i., 185 kBq): 4.12 % injected dose per gram of tumor
Bilanz/summary carcass (H460 tumor bearing mice; 1 h): 2.2%
Bilanz/summary faeces (H460 tumor bearing mice; 1 h): 0.7%
Bilanz/summary organs (H460 tumor bearing mice; 1 h): 6.8%
blood (H460 tumor bearing mice; 1 h): 0.13 % Dosis/g
gallbladder (H460 tumor bearing mice; 1 h): 5.00 % Dosis/g
intestine (H460 tumor bearing mice; 1 h): 0.85 % Dosis/g
kidney (H460 tumor bearing mice; 1 h): 0.83 % Dosis/g
liver (H460 tumor bearing mice; 1 h): 0.07 % Dosis/g
pancreas (H460 tumor bearing mice; 1 h): 0.12 % Dosis/g
thyroid (H460 tumor bearing mice; 1 h): 0.72 % Dosis/g
tumor (H460 tumor bearing mice; 1 h): 3.68 % Dosis/g
Bilanz/summary Recovery (H460 tumor bearing mice; 1 h): 109.3
Bilanz/summary urine (H460 tumor bearing mice; 1 h): 99.6
Bilanz/summary carcass (H460 tumor bearing mice; 2 h): 1.1%
Bilanz/summary faeces (H460 tumor bearing mice; 2 h): 2%
Bilanz/summary organs (H460 tumor bearing mice; 2 h): 3.8%
blood (H460 tumor bearing mice; 2 h): 0.08 % Dosis/g
gallbladder (H460 tumor bearing mice; 2 h): 4.73 % Dosis/g
intestine (H460 tumor bearing mice; 2 h): 0.78 % Dosis/g
kidney (H460 tumor bearing mice; 2 h): 0.24 % Dosis/g
liver (H460 tumor bearing mice; 2 h): 0.03 % Dosis/g
pancreas (H460 tumor bearing mice; 2 h): 0.06 % Dosis/g
thyroid (H460 tumor bearing mice; 2 h): 0.42 % Dosis/g
tumor (H460 tumor bearing mice; 2 h): 1.90 % Dosis/g
Bilanz/summary Recovery (H460 tumor bearing mice; 2 h): 109.7
Bilanz/summary urine (H460 tumor bearing mice; 2 h): 102.8
Bilanz/summary carcass (H460 tumor bearing mice; 4 h): 0.5%
Bilanz/summary faeces (H460 tumor bearing mice; 4 h): 0.1%
Bilanz/summary organs (H460 tumor bearing mice; 4 h): 2.8%
blood (H460 tumor bearing mice; 4 h): 0.06 % Dosis/g
gallbladder (H460 tumor bearing mice; 4 h): 6.63 % Dosis/g
intestine (H460 tumor bearing mice; 4 h): 1.32 % Dosis/g
kidney (H460 tumor bearing mice; 4 h): 0.10 % Dosis/g
liver (H460 tumor bearing mice; 4 h): 0.03 % Dosis/g
pancreas (H460 tumor bearing mice; 4 h): 0.03 % Dosis/g
thyroid (H460 tumor bearing mice; 4 h): 1.05 % Dosis/g
tumor (H460 tumor bearing mice; 4 h): 1.55 % Dosis/g
Bilanz/summary Recovery (H460 tumor bearing mice; 4 h): 115.3
Bilanz/summary urine (H460 tumor bearing mice; 4 h): 111.9
activity excreted via the kidneys (H460 tumor bearing mice; after 30 min p.i.): more than 90 % of activity
SMILES: N[C@@H](C[C@H](Cc1ccc([125I])cc1)C(=O)O)C(=O)O [(2S,4S)-2-Amino-4-(4-[I-125]-iodo-benzyl)-pentanedioic acid]
uptake by the cells (NCl-H460 cells [1]; H460 cells, 0.25 MBq, 60 min incubation, PBS-buffer containing 0.1% BSA): Approximately 22,3 % of applied dose
time dependence of uptake (NCl-H460 cells [1]; H460 cells, 0.25 MBq, up to 60 min, PBS-buffer containing 0.1% BSA): A time-dependent uptake was observed
tumor visibility in SPECT-images [4]: The tumor was very well visible
activity retained in the tumor cells (H460 tumor cells): more than 75 % of activity

SMILES: N[C@@H](C[C@H](Cc1ccc(O)c([125I])c1)C(=O)O)C(=O)O [(2S,4S)-2-Amino-4-(4-hydroxy-3-[I-125]-iodobenzyl)-pentanedioic acid]
uptake of I125 tracer against excess of L-Glutamic acid (NCl-H460 cells [2]; H460 cells, 10 min incubation in PBS-buffer, L-Glutamate 1 mM): the uptake was blockable by excess of glutamic acid

SMILES: N[C@@H](C[C@H](Cc1ccc(I)cc1)C(=O)O)C(=O)O [(2S,4S)-2-Amino-4-(4-iodo-benzyl)-pentanedioic acid]
uptake of 3H-glutamic acid ([3]; NCl-H460 cells, test compound 1 mM, 10 min incubation with 1 μCi 3H-Glutamic acid in PBS-buffer): able to reduce the uptake of glutamic acid
uptake of 3H-glutamic acid [5]: able to reduce the uptake of glutamic acid

SMILES: N[C@@H](CCC(Cc1ccc(I)cc1)C(=O)O)C(=O)O (stereo partly drawn) [(S)-2-Amino-5-(4-iodobenzyl)-hexanedioic acid]
uptake of 3H-glutamic acid ([3]; H460 cells, 30 min incubation, competitor 1 mM and 0.1 mM): strongly reduces the uptake of glutamic acid
